Measurements from patent US20050221422A1, “Novel galactose transferases, peptides thereof and nucleic acid encoding the same” (priority 2002, published 2005).
Ends that are not written are not given here. T(GalNAc) = N-acetylgalactosamine-glycosylated threonine

Tests used:
[1] = test system: C1Gal-T2; experiment: Screening for acceptor substrate of C1Gal-T2 (UDP-[14C]-Gal transfer, TLC, LSC-C1Gal-T2 cell extract); type: biochemical, human; settings: LSC-C1Gal-T2 cell extract as enzyme source; acceptor substrate 10 nmol; 37° C. for two hours
Experimental: The reaction system below was used to investigate C2 acceptor substrates. To investigate whether pNp-α-GalNAc or pNp-β-GalNAc (both from Sigma) functioned as acceptors, each was used as an “acceptor substrate” in the following reaction solution:
The reaction solution (the parentheses show final concentrations) comprised acceptor substrate (10 nmol), HEPES buffer (pH 7.4) (14 mM), MnCl2 (12.5 mM), UDP-Gal (250 μM), and UDP-[^14C]-Gal (175 nCi). 5 μl of enzyme solution was added to this reaction solution, followed by the addition of H2O to a total volume of 20 μl. The enzyme solution was prepared by suspending cells (5×10^6 cells) in 50 ml of cell lysing buffer (HEPES buffer (pH 7.4) (20 mM), NaCl (154 mM) and TritonX-100 (1%)), incubating at 4° C. for 15 minutes in a water bath type ultrasonic homogenizer, centrifuging, and then obtaining the supernatant for the enzyme solution. The aforementioned reaction mixture was reacted at 37° C. for two hours. Following completion of the reaction, 200 μl of H2O was added to the mixture, which was gently centrifuged to obtain the supernatant. […] After drying the plate, the amount of radioactivity taken up by the product was measured using the Bio Image Analyzer FLA3000 (Fuji Photo Film).

[2] = biological target: T1, C1Gal-T3 (Homo sapiens, UniProt P0DN25); experiment: Galactose transferring activity of C1Gal-T3 recombinant enzyme on N-acetylgalactosaminyl peptides; type: biochemical; settings: C1Gal-T3 recombinant enzyme expressed in COS-1 cells as enzyme source
T1 construct: a carboxyl terminal region (enzyme activity region) minus the transmembrane region at the amino terminus; preprotrypsin secretion signal (N); made in house; host or cells: COS-1 cells, transient transfection with pFLAG-C1Gal-T3; purified from culture supernatant on anti-FLAG M1 agarose
Experimental: The reaction solution (parentheses indicate final concentrations) comprised acceptor substrate (5 pmol), MES buffer (pH 6.5) (100 mM), MnCl2 (20 mM), ATP (2 mM), and UDP-Gal (0.5 mM). 5 μl of […] enzyme source was added to this reaction solution, which was then brought to a total volume of 20 μl by adding H2O.
The above reaction mixture was reacted at 37° C. for eight hours. After completion of the reaction, 60 μl of H2O was added, and the mixture was gently centrifuged to acquire the supernatant. This supernatant was purified through an Ultra Free MC Column (Millipore), and 30 μl of thus-purified solution was analyzed using high-performance liquid chromatography (HPLC). CAPCELL PAK C18 UG120 (Shiseido) was used as the column, 0.1% trifluoroacetic acid was used as the separation buffer, and the elution was carried out over an acetonitrile concentration gradient of 15-30%. The flow rate was 1 ml/minute.
Galactose transferring activity was measured using the C1Gal-T3 recombinant enzyme expressed in COS-1 cells as an enzyme source, and using the N-acetylgalactosaminyl peptides used in Example 5 as acceptor substrates.

T1 sequence (P0DN25 30-315 limits assumed): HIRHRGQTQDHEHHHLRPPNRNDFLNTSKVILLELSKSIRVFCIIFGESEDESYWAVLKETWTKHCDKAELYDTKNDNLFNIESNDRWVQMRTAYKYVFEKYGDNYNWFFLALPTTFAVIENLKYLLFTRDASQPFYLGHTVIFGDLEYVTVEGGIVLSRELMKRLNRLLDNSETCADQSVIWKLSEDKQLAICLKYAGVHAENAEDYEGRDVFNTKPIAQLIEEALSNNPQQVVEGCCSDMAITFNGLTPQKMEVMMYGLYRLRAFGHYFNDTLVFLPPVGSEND

Row | galactose transferring activity [2] | Compound | reaction as acceptor substrate (galactose transfer from UDP-Gal) [1]
1 | – | CC(=O)N[C@H]1[C@H](Oc2ccc([N+](=O)[O-])cc2)O[C@H](CO)[C@H](O)[C@@H]1O [pNp-β-GalNAc] | did not react
2 | could be confirmed | VPST(GalNAc)PPTPSPSTPPTPSPS ({Val-Pro-Ser-T(GalNAc)}-PPTPSPSTPPTPSPS) [4-GalNAc-HP, human IgA1 hinge peptide with GalNAc on the 4th residue] | –
3 | – | CC(=O)N[C@H]1[C@@H](Oc2ccc([N+](=O)[O-])cc2)O[C@H](CO)[C@H](O)[C@@H]1O [pNp-α-GalNAc] | reacted strongly
